Data taken from ChEMBL document CHEMBL1122580, “Adenosine deaminase inhibitors. Synthesis of deaza analogues of erythro-9-(2-hydroxy-3-nonyl)adenine” (J Med Chem, 1984).
pKi: −log10 of the molar value.

Key:
Adenosine deaminase [1] = target: T1, Adenosine deaminase (Bos taurus, UniProt P56658); experiment: Binding affinity against calf intestine adenosine deaminase enzyme
T1 sequence (P56658 whole entry): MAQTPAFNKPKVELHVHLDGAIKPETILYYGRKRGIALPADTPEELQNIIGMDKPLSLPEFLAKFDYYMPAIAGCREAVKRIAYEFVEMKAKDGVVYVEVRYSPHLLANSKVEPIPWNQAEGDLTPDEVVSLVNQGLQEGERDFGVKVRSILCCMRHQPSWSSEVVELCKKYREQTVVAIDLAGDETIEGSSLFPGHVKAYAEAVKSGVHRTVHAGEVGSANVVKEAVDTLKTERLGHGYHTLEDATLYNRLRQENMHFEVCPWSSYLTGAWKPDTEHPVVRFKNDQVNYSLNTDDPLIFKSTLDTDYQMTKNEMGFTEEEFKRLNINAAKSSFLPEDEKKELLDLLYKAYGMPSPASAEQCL

Adenosine deaminase [2] = target: T1, Adenosine deaminase; experiment: Binding affinity against calf intestine adenosine deaminase enzyme; Not Active

SMILES	pKi (Adenosine deaminase [1])	Ki (Adenosine deaminase [2])
Nc1ccnc2c1ncn2[C@@H]1O[C@H](CO)[C@@H](O)[C@H]1O	6.18	
CCCCCCC(C(C)O)n1cnc2cncnc21 (stereo not given)	6.08	
CCCCCCC(C(C)O)n1cnc2cnccc21 (stereo not given)	6.92	
CCCCCC[C@@H]([C@@H](C)O)n1cnc2c(N)ncnc21 [EHNA]	8.15	
OC[C@H]1O[C@@H](n2cnc3cncnc32)[C@H](O)[C@@H]1O [NEBULARINE]	4.82	

Further lines, results first:

pKi (Adenosine deaminase [1])	Ki (Adenosine deaminase [2])	SMILES
8.00		CCCCCCC(C(C)O)n1cnc2c(N)nccc21 (stereo not given)
6.80		CCCCCCC(C(C)O)n1cnc2c(N)ccnc21 (stereo not given)
3.44		Nc1nccc2c1ncn2[C@@H]1O[C@H](CO)[C@@H](O)[C@H]1O
	Not Active	OC[C@H]1O[C@@H](n2cnc3cnccc32)[C@H](O)[C@@H]1O
4.38		OC[C@H]1OC(n2cnc3cccnc32)[C@H](O)[C@@H]1O (stereo not given in full)
